Results on six compounds are retold here after patent US9649305B2, “PFKFB3 inhibitor and methods of use as an anti-cancer therapeutic” (ADVANCED CANCER THERAPEUTICS, LLC, priority 2012, dated 2017).

Structures are written as SMILES.

For data set [1], the target named is T1, PFKFB3 (Homo sapiens, UniProt Q16875). Put plainly: Enzymatic activity of PFKFB3 in cells (F2,6BP levels, Van Schaftingen method). The class given is cell-based. Also noted: endogenous in cells; host or cells: Jurkat cells. The conditions noted are these: Table 8; read-out: IC50, Enzymatic activity of PFKFB3 in cells. How it is done:
Inhibition of PFKFB3 can also be measured in cells by measuring fructose-2,6-biphosphate levels according to the Van Schaftingen method (Eur. J. of Biochem, 129: 191 (1982)). This method enables measurement of the inhibition in a cellular environment, a model more relevant than the pure recombinant protein. Briefly, Jurkat cells were plated at 1×10^5 cells/mL and incubated with different concentrations of PFK-158 for 3 hours. Samples were collected and cells were lysed. Extracts were characterized as described in previous reports and normalized to protein concentration.

In data set [2] the test system is Jurkat cell line (leukemia cell line). As to the kind of experiment: Toxicity / cell growth of Jurkat cell line. Format: cell-based. The conditions noted are these: Homo sapiens, Jurkat; Table 8; read-out: IC50, toxicity of Jurkat cell line (leukemia cell line). How it is done:
The ability of PFK-158 to kill or inhibit the proliferation of cancer cells was measured using either the MTT assay, the alamarBlue® assay (Invitrogen, Grand Island, N.Y.), or the CellTiter Glo™ assay (Promega, Madison, Wis.) using 48 or 72 hours exposure.
Cells of the desired tumor cell line were plated at 2×10^5 cells/ml in 96 well plates. Twice the indicated concentrations of the compounds of the invention were added to cells the following day in an equal volume of media. 72 hours later, cells were lysed and subjected to ATP determination using the CellTiter-Glo™ Luminescent Cell Viability Assay kit. Experiments were performed in triplicate. When using the MTT assay or the alamarBlue® assay, the experimental conditions are essentially similar; at the end of the incubation period, 20 microliters of the MTT solution is added per well and the samples are incubated for an additional four hours, rinsed, and absorbance at 570 nm was measured. Results for the inhibition of cell proliferation are reported as the IC50 (the concentration resulting in 50% inhibition of proliferation of the cell population) and are listed in Table 5 below. Cell lines include lung, colon, prostate, breast, ovarian, and pancreatic cancer lines.

Data set [3] can be described thus: IV pharmacokinetics in mice. Format: in vivo, Balbc mice. The conditions noted are these: mouse, plasma, 5 mg/kg, Table 9, BalbC mice, IV dosing; for AUC(0-inf): read-out: AUC0-inf; for Cmax: read-out: Cmax. The method, then: The pharmacokinetic (PK) parameters for PFK-158 were determined in mice following IV (intravenous) administration in mice and rats. A typical study design includes six animals (male or female) 7 to 8 weeks old.
Mouse pharmacokinetic properties using a dose of 5 mg/kg were determined after IV administration using a 10% DMSO, 10% PEG-200, 10% Solutol:ethanol (1:1) and 70% D5W solution or any other pharmaceutically acceptable parenteral formulation. Blood samples were collected at different intervals. Plasma samples were extracted and analyzed using an LC-MS/MS method. Similar protocols were used for the rat PK study (Sprague Dawley rats; 30 mg/kg), although the formulation for rat PK studies differed (30% Captisol, pH 3.0 solution). Time vs. plasma concentration plots were prepared as shown in FIGS. 4 (BalbC mice) and 5 (SD rats), respectively. Pharmacokinetic parameters were calculated and are provided below in Table 7.

In data set [4] the test system is Jurkat cells. As to the kind of experiment: Inhibition of 14C-2-deoxyglucose uptake. Format: cell-based. The following applies: Homo sapiens, Jurkat; Table 8; read-out: IC50, Inhibition of 2 deoxyglucose uptake. How it is done: Inhibition of PFKFB3 results in inhibiting glycolysis. Several feedback or feedforward activation and inhibition mechanisms exist so that, by a feedback mechanism, inhibiting the activity of PFKFB3 might inhibit glucose uptake by cells. An assay was developed to determine if there was inhibition of glucose uptake following exposure PFK-158. Briefly, Jurkat cells were plated at 10^5 cells/mL in RPMI 1640 supplemented with 10% fetal bovine serum and 50 μg/mL gentamicin sulfate. Cells were immediately treated with vehicle or 0.5 μmol/L of PFK-158 for 3 hours and subsequently placed in glucose-free RPMI 1640 for 30 min. ^14C-2-deoxyglucose (0.25 μCi/mL; Perkin Elmer) was added for an additional 60 min and cells were then washed three times with ice-cold RPMI 1640 containing no glucose. Cell lysates were collected in 500 μL of 0.1% SDS and scintillation counts (counts/min) were measured on 400 μL of lysate. Counts were normalized to protein concentration.

For data set [5], the target named is T1, PFKFB3. As to the kind of experiment: Enzymatic activity of recombinant PFKFB3, ADP-Glo assay. The class given is biochemical. The conditions noted are these: Table 8; read-out: IC50, Enzymatic activity of PFKFB3, ADP-Glo Assay. How it is done: The inducible bifunctional 6-Phosphofructo-2-kinase/fructose2,6-biphosphatase enzyme (PFKFB3) was expressed and purified in order to determine if PFK-158 inhibits enzymatic activity. PFKFB3 was prepared by expression in E. coli and purified by GST column and column chromatography. […] The recombinant protein was pure and active as determined by the results of a commercially available kinase activity assay (ADP-Glo™, Promega, Madison, Wis.).

The nature of data set [6]: IV pharmacokinetics in rats, 40 mg/kg. The class given is in vivo. The conditions noted are these: IV 40 mg/kg; for Plasma AUC0→t: Captisol solution. How it is done:
(§1) In another embodiment, a cyclodextrin based solution was used to investigate the PK profile of PFK-158, 2HCl at a higher concentration in both rats and dogs.
(§2) The solution was prepared with 40% w/v Captisol® in water for injection, 5% Mannitol, and a pH 2.3 citrate buffer leading to a 8 mg/ml concentration of PFK-158, 2HCl. This solution was safely administered IV to rats and dogs at a dose of 40 mg/kg. Blood samples were taken over a 24 hour period and analyzed. […] Pharmacokinetic parameters were calculated in the same way in dogs: plasma AUC0→24 values of 16,100±700 and 15,900±2600 hr·ng/mL, and plasma C5 min values of 6960±1180 and 6900±900 ng/mL were obtained for male and female dogs, respectively.

The nature of data set [7]: IV pharmacokinetics in dogs, 40 mg/kg. The conditions noted are these: IV 40 mg/kg. The class given is in vivo. The method, then:
as §1, §2

T1 sequence (Q16875 whole entry): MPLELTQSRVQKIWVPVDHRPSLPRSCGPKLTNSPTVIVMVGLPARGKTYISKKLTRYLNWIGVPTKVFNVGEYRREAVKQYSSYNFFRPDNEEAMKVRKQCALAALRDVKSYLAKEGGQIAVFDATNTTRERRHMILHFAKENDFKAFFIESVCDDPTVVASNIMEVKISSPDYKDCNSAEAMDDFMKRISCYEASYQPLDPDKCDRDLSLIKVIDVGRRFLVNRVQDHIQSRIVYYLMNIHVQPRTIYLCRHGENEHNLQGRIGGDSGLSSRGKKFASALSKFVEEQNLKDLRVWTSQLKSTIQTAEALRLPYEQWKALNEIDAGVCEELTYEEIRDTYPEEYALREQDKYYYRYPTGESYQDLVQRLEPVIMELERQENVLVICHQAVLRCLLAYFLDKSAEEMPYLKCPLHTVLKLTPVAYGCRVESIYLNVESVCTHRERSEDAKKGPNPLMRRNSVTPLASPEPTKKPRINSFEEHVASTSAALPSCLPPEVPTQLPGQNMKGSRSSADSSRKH

In the case of `COc1ccc2nc(/C=C/C(=O)c3ccncc3)ccc2c1` [PFK-138, 3-(6-methoxy-quinolin-2-yl)-1-pyridin-4yl-propenone], in data set [1], the IC50 is 7.4 ± 1.8 µM. For the same compound, in data set [2], the IC50 is 1.2 ± 0.2 µM. Further, in data set [3], the clearance amounted to 154 mL/min/kg, the half-life was 0.7 h, the AUC(0-inf) came to 541 ng·h/mL and the Cmax worked out at 991 ng/mL. Moreover, the IC50 in data set [4] came to 2.2 ± 0.3 µM. The IC50 in data set [5] worked out at 0.431 ± 0.034 µM.

`COc1ccc2nc(/C=C/C(=O)c3ccnc(OC)c3)ccc2c1` [PFK-144, 1-(2-methoxy-pyridin-4-yl)-3-(6-methoxy-quinolin-2-yl)-propenone]: the IC50 is 10.7 ± 0.3 µM in data set [1], 1.7 ± 0.3 µM in data set [2], 3.1 ± 0.5 µM in data set [4] and 0.654 ± 0.094 µM in data set [5]. This compound also yielded a clearance in data set [3] of 120 mL/min/kg. In data set [3], this compound had a half-life of 2.8 h. In addition, the AUC(0-inf) in data set [3] came out at 696 ng·h/mL. Moreover, in data set [3], the Cmax was 1500 ng/mL.

`O=C(/C=C/c1ccc2cc(OCCN3CCCCC3)ccc2n1)c1ccncc1` [PFK-150, 3-(6-(2-piperidin-1-yl-ethoxy)-quinolin-2-yl)-1-pyridin-4-yl-propenone]: the IC50 in data set [1] worked out at 15.6 ± 1.4 µM. The concentration for half-maximal inhibition (IC50) in data set [2] was 2.5 ± 0.4 µM. Besides, in data set [3], the clearance is 1330 mL/min/kg, the half-life is 2.5 h, the AUC(0-inf) was 63 ng·h/mL and the Cmax stood at 40 ng/mL. Moreover, the half-maximal inhibitory concentration (IC50) in data set [4] stood at 3.8 ± 0.8 µM. Further, the IC50 in data set [5] turned out to be 0.802 ± 0.177 µM.

Turning to `O=C(/C=C/c1ccc2cccc(C(F)(F)F)c2n1)c1ccncc1` [PFK-153, 1-Pyridin-4-yl-3-(8-trifluoromethyl-quinolin-2-yl)-propenone], the IC50 in data set [1] was 6 ± 0.6 µM. The IC50 in data set [2] stood at 0.9 ± 0.1 µM. Also, in data set [3], the clearance amounted to 327 mL/min/kg, the half-life is 3.8 h, the AUC(0-inf) is 225 ng·h/mL and the Cmax is 397 ng/mL. Further, the IC50 in data set [4] worked out at 1.2 ± 0.6 µM. Also, in data set [5], the half-inhibitory concentration (IC50) was 0.173 ± 0.023 µM.

In the case of `Cc1ccc2ccc(/C=C/C(=O)c3ccncc3)nc2c1` [PFK-154, 3-(7-Methyl-quinolin-2-yl)-1-pyridin-4-yl-propenone], the IC50 in data set [1] amounted to 11.3 ± 0.6 µM. Besides, the IC50 in data set [2] was 1.3 ± 0.1 µM. In data set [3], the clearance was 75 mL/min/kg, the half-life is 6.1 h, the AUC(0-inf) was 1100 ng·h/mL and the Cmax stood at 672 ng/mL. In data set [4], the IC50 was 2.2 ± 0.6 µM.

`Cl.Cl.O=C(/C=C/c1ccc2ccc(C(F)(F)F)cc2n1)c1ccncc1` [PFK-158, 2HCl]: in data set [6] (female rats), the “plasma Cmax” value is on record as 39,500±10,000 ng/mL and the “Plasma AUC0→t” value was 27,700±5800 hr·ng/mL. In data set [6] (male rats), the “plasma Cmax” value is 51,400±6300 ng/mL and the “Plasma AUC0→t” value is on record as 37,600±2800 hr·ng/mL. In data set [7] (female dogs), the “plasma AUC0→24” value was 15,900±2600 hr·ng/mL and the “plasma C5 min” value turned out to be 6900 ± 900 ng/mL. Also, in data set [7] (male dogs), the “plasma AUC0→24” value is on record as 16,100±700 hr·ng/mL and the “plasma C5 min” value is 6960 ± 1180 ng/mL.
